Results taken from patent publication US12319648B2, “Fluorinated phenylacetic acid derivatives in a weed control method” (SYNGENTA CROP PROTECTION AG, priority 2019, dated 2025).

Assays:
Format in all cases: in vivo
[1] = test system: Echinochloa crus-galli (ECHCG); assay: Pre-emergence herbicidal glasshouse test; conditions: pre-emergence, 250 g/ha, 13 days after application
Method: (§1) Seeds of a variety of test species are shown in standard soil in pots Amaranthus retoflexus (AMARE), Ipomoea hederacea (IPOHE), Solanum nigrum (SOLNI), Lolium perenne (LOLPE). Echinochloa crus-galli (ECHCG), Setaria faberi (SETFA)). After cultivation for one day (pre-emergence) or after 8 days cultivation (post-emergence) under controlled conditions in a glasshouse (at 24/16° C., day/night; 14 hours light; 65% humidity), the plants are sprayed with an aqueous spray solution derived from the formulation of the technical active ingredient in acetone/water (50:50) solution containing 0.5% Tween 20 (polyoxyethylene sorbitan monolaurate, CAS RN 9005-64-5). Compounds are applied at 250 g/ha unless otherwise stated. The test plants are then grown in a glasshouse under controlled conditions in a glasshouse (at 24/16° C., day/night; 14 hours light; 65% humidity) and watered twice daily. After 13 days for pre and post-emergence, the test is evaluated for the percentage damage caused to the plant. The biological activities are shown in the following table on a five-point scale (5=81-100%; 4=61-80%; 3=41-60%; 2=21-40%; 1=0-20%).
(§2) Using the experimental conditions outlined above, a further test is conducted to compare the herbicidal properties of the difluro containing compound (1.014) with a representative compound (C1) referred to in GB901553. The compounds are applied at 1000 g/ha and 500 g/ha. The test is evaluated for the percentage damage caused to the plant (% phytotoxicity).

[2] = test system: Setaria faberi (SETFA); assay: Pre-emergence herbicidal glasshouse test; conditions: pre-emergence, 250 g/ha, 13 days after application
Method: as §1, §2

[3] = test system: Ipomoea hederacea (IPOHE); assay: Pre-emergence herbicidal glasshouse test; conditions: pre-emergence, 250 g/ha, 13 days after application
Method: as §1, §2

[4] = test system: Lolium perenne (LOLPE); assay: Pre-emergence herbicidal glasshouse test; conditions: pre-emergence, 250 g/ha, 13 days after application
Method: as §1, §2

[5] = test system: Echinochloa crus-galli (ECHCG); assay: Post-emergence herbicidal glasshouse test; conditions: post-emergence, 250 g/ha, 13 days after application
Method: as §1, §2

[6] = test system: Setaria faberi (SETFA); assay: Post-emergence herbicidal glasshouse test; conditions: post-emergence, 250 g/ha, 13 days after application
Method: as §1, §2

[7] = test system: Ipomoea hederacea (IPOHE); assay: Post-emergence herbicidal glasshouse test; conditions: post-emergence, 250 g/ha, 13 days after application
Method: as §1, §2

[8] = test system: Amaranthus retoflexus (AMARE); assay: Post-emergence herbicidal glasshouse test; conditions: post-emergence, 250 g/ha, 13 days after application
Method: as §1, §2

[9] = test system: Solanum nigrum (SOLNI); assay: Post-emergence herbicidal glasshouse test; conditions: post-emergence, 250 g/ha, 13 days after application
Method: as §1, §2

[10] = test system: Lolium perenne (LOLPE); assay: Post-emergence herbicidal glasshouse test; conditions: post-emergence, 250 g/ha, 13 days after application
Method: as §1, §2

[11] = test system: Amaranthus retoflexus (AMARE); assay: Pre-emergence herbicidal glasshouse test; conditions: pre-emergence, 250 g/ha, 13 days after application
Method: as §1, §2

SMILES | percentage damage caused to the plant, five-point scale, ECHCG [1] | percentage damage caused to the plant, five-point scale, SETFA [2] | percentage damage caused to the plant, five-point scale, IPOHE [3] | percentage damage caused to the plant, five-point scale, LOLPE [4] | percentage damage caused to the plant, five-point scale, ECHCG [5] | percentage damage caused to the plant, five-point scale, SETFA [6] | percentage damage caused to the plant, five-point scale, IPOHE [7] | percentage damage caused to the plant, five-point scale, AMARE [8] | percentage damage caused to the plant, five-point scale, SOLNI [9] | percentage damage caused to the plant, five-point scale, LOLPE [10] | percentage damage caused to the plant, five-point scale, AMARE [11]
O=C(O)C(F)(F)c1cccc(Cl)c1Cl [Compound 1.034] | 2 (2=21-40%) | 1 (1=0-20%) | 5 (5=81-100%) | 2 (2=21-40%) | 2 (2=21-40%) | 3 (3=41-60%) | 4 (4=61-80%) | 5 (5=81-100%) | 3 (3=41-60%) | 1 (1=0-20%) | 
O=C([O-])C(F)(F)c1cccc(Cl)c1Cl.[Na+] [Compound 1.038] | 1 (1=0-20%) | 3 (3=41-60%) | 5 (5=81-100%) | 2 (2=21-40%) | 2 (2=21-40%) | 4 (4=61-80%) | 4 (4=61-80%) | 5 (5=81-100%) | 4 (4=61-80%) | 1 (1=0-20%) | 
O=C(O)C(F)(F)c1cccc(Cl)c1Cl [Compound 1.041] |  |  |  |  | 4 (4=61-80%) |  |  |  | 4 (4=61-80%) | 4 (4=61-80%) | 
O=C([O-])C(F)(F)c1cccc(Cl)c1Cl.[K+] [Compound 1.042] | 1 (1=0-20%) |  | 5 (5=81-100%) | 2 (2=21-40%) | 2 (2=21-40%) | 3 (3=41-60%) | 4 (4=61-80%) | 5 (5=81-100%) | 4 (4=61-80%) | 1 (1=0-20%) | 
O=C(O)C(F)(F)c1c(Cl)cccc1Cl [Compound 1.044] | 1 (1=0-20%) |  | 3 (3=41-60%) |  | 1 (1=0-20%) |  | 4 (4=61-80%) | 3 (3=41-60%) |  |  | 2 (2=21-40%)
O=C(O)C(F)(F)c1cccc(Cl)c1Br [Compound 1.050] | 2 (2=21-40%) |  | 5 (5=81-100%) |  | 2 (2=21-40%) |  | 5 (5=81-100%) | 5 (5=81-100%) |  |  | 5 (5=81-100%)
O=C(O)C(F)(F)c1ccc(F)c(Cl)c1F [Compound 1.051] | 1 (1=0-20%) |  | 5 (5=81-100%) |  | 1 (1=0-20%) |  | 4 (4=61-80%) | 5 (5=81-100%) |  |  | 3 (3=41-60%)
Cc1c(Cl)cccc1C(F)(F)C(=O)O [Compound 1.058] | 3 (3=41-60%) |  | 5 (5=81-100%) |  | 3 (3=41-60%) |  | 5 (5=81-100%) | 5 (5=81-100%) |  |  | 5 (5=81-100%)
O=C(O)C(F)(F)c1cccc(C(F)(F)F)c1Cl [Compound 1.059] | 1 (1=0-20%) |  | 5 (5=81-100%) |  | 3 (3=41-60%) |  | 5 (5=81-100%) | 5 (5=81-100%) |  |  | 1 (1=0-20%)
O=C(O)C(F)(F)c1cccc(Cl)c1C(F)(F)F [Compound 1.060] | 1 (1=0-20%) |  | 3 (3=41-60%) |  | 1 (1=0-20%) |  | 5 (5=81-100%) | 5 (5=81-100%) |  |  | 5 (5=81-100%)
Cc1cccc(C(F)(F)C(=O)O)c1F.N [Compound 1.061] | 1 (1=0-20%) |  | 1 (1=0-20%) |  | 1 (1=0-20%) |  | 3 (3=41-60%) | 1 (1=0-20%) |  |  | 3 (3=41-60%)
Cc1cccc(C(F)(F)C(=O)O)c1C(F)(F)F.N [Compound 1.062] | 1 (1=0-20%) |  | 3 (3=41-60%) |  | 1 (1=0-20%) |  | 3 (3=41-60%) | 4 (4=61-80%) |  |  | 3 (3=41-60%)
Cc1ccc(Cl)c(Cl)c1C(F)(F)C(=O)O.N [Compound 1.063] | 1 (1=0-20%) |  | 1 (1=0-20%) |  | 1 (1=0-20%) |  | 3 (3=41-60%) | 4 (4=61-80%) |  |  | 1 (1=0-20%)
Cc1c(F)cccc1C(F)(F)C(=O)O [Compound 1.075] | 1 (1=0-20%) |  | 3 (3=41-60%) |  | 1 (1=0-20%) |  | 4 (4=61-80%) | 5 (5=81-100%) |  |  | 3 (3=41-60%)
Cc1c(Cl)ccc(Cl)c1C(F)(F)C(=O)O.N [Compound 1.084] | 1 (1=0-20%) |  | 1 (1=0-20%) |  | 1 (1=0-20%) |  | 4 (4=61-80%) | 2 (2=21-40%) |  |  | 2 (2=21-40%)
